Experimental findings from paper PMC4266903, “Hydroxylation index of omeprazole in relation to CYP2C19 polymorphism and sex in a healthy Iranian population” (DARU Journal of Pharmaceutical Sciences, 2014) are described below.

The nature of this series: Plasma concentration of omeprazole and hydroxyomeprazole by HPLC 3 hours after a single oral 20 mg omeprazole dose. Format: in vivo, human. Conditions: for Mean OH-OMP concentration ± SD: plasma, 3 h after single oral 20 mg omeprazole. From the text: The study protocol was approved by ethics committee of Tehran University of Medical Sciences (ethical no. 11208). Generally one hundred and eighty (60 women and 120 men) unrelated healthy Iranian volunteers with the mean age of between 20–55 years and average body weight of 45–89 kg took part in this study. All participants signed written informed consent of this project. The study was completed by contribution of faculties of pharmacy of Tehran, Yazd, Kermanshah and Kerman University of Medical Sciences. The participants were students or stuffs of pharmacy schools, with no history of any illness or medicine consumption. No smoking and consumption of medicine that would affect CYP2C19 activity was permitted for one week before and during the study.
After an overnight fast for at least 8 hours, volunteers took 20 mg omeprazole capsule (Abidi pharmaceuticals) with 250 milliliter tap water. Ten ml venous blood sample was collected from each subject 3 hours after administration of omeprazole and transferred into tubes containing 10 μl of 10% EDTA. Five ml of blood samples were centrifuged for 5 min at 4000 rpm and the plasma was separated and transferred to Eppendorf tube and stored at −80°C up to the day of analysis. The other 5 ml blood samples were stored directly in −80°C for genotyping analysis.
Omeprazole powder was purchased from TMAD (Iran). 5-hydroxyomeprazole was a kind donation by AstraZeneca (Sweden). The concentration of omeprazole and 5-hydroxyomeprazole was analyzed by HPLC method as described by Rezk et al. with a few modifications. Briefly 500 μl plasma was extracted by liquid-liquid extraction using 1500 μl ethyl acetate. After orbital mixing for 10 min and centrifuging at 4000 × g for 10 min, the upper organic layer was separated and transferred to glass tube and then evaporated to dryness under gentle stream of air. Finally the residue was dissolved in 250 μl mobile phase and 100 μl of this sample was injected to HPLC system. The mobile phase was a combination of dibasic sodium phosphate buffer (0.025 mol/lit, pH 6): acetonitrile: methanol (73: 18: 8 V/V/V). The HPLC apparatus consisted of a low pressure HPLC pump, UV detector (λ = 302 nm) all from Knauer (Berlin, Germany). The chromatographic separation was performed by using Chromolit™ Performance RP-18e 100 mm × 4.6 mm, 5 μm particle size. Flow rate was adjusted to 1 ml/min.

In the case of `COc1ccc2nc([S+]([O-])Cc3ncc(CO)c(OC)c3C)[nH]c2c1` (stereo not shown) [hydroxyomeprazole, 5-hydroxyomeprazole], the “Hydroxyomeprazole plasma concentration, women compared with men” value (60 women vs 120 men, P > 0.05) is reported as “not statistically different”. For the same molecule, the “Mean OH-OMP concentration ± SD” value reads like this: (genotype 1*1, Men (53)) 151.01 ± 26.38 ng/mL; (genotype 1*1, Total (75)) 163.74 ± 32.25 ng/mL; (genotype 1*1, Women (22)) 194.40 ± 60.84 ng/mL; (genotype 1*2, Men (20)) 165.53 ± 23.55 ng/mL; (genotype 1*2, Total (33)) 177.79 ± 38.39 ng/mL; (genotype 1*2, Women (13)) 194.66 ± 52.56 ng/mL. In addition, the “Mean OH-OMP concentration ± SD” value reads like this: (genotype 1*17, Men (37)) 178.07 ± 44.57 ng/mL; (genotype 1*17, Total (52)) 177.05 ± 37.53 ng/mL; (genotype 1*17, Women (15)) 174.51 ± 28.01 ng/mL; (genotype 2*2, Men (1)) 103.58 ng/mL; (genotype 2*2, Total (4)) 104.67 ± 10.55 ng/mL; (genotype 2*2, Women (3)) 105.03 ± 13.80 ng/mL. Also, the “Mean OH-OMP concentration ± SD” value is, setting by setting: (genotype 2*17, Men (2)) 169.82 ± 84.95 ng/mL; (genotype 2*17, Total (6)) 172.79 ± 63.58 ng/mL; (genotype 2*17, Women (4)) 178.72 ± 33.59 ng/mL; (genotype 17*17, Men (5)) 201.69 ± 32.08 ng/mL; (genotype 17*17, Total (10)) 203.31 ± 34.93 ng/mL; (genotype 17*17, Women (5)) 204.92 ± 41.35 ng/mL.
